# Test results published in the CombiSolv-Exp solvation set (Vermeire and Green 2021).
# Assay: solvent given as SMILES
smiles,measurement,setting,value
CCCCCCCOC(=O)c1ccccc1C(=O)OCCCCCCC,"solvation free energy, 298 K",in O,-6.68 kcal/mol
CC(C)CCCC(C)C1CCC2C3CC=C4CC(O)CCC4(C)C3CCC12C (stereo unspecified),"solvation free energy, 298 K",in O,-5.93 kcal/mol
CCCCCCCCCCCCCCO,"solvation free energy, 298 K",in CC(C)O,-12.3 kcal/mol
same,"solvation free energy, 298 K",in CCC(C)=O,-12.6 kcal/mol
same,"solvation free energy, 298 K",in CCCCCCCCC=CCCCCCCCC(=O)OCC(COC(=O)CCCCCCCC=CCCCCCCCC)OC(=O)CCCCCCCC=CCCCCCCCC,-9.9 kcal/mol
same,"solvation free energy, 298 K",in CCCCCCCCCCO,-12.1 kcal/mol
same,"solvation free energy, 298 K",in CCCCCCO,-12.2 kcal/mol
same,"solvation free energy, 298 K",in O,-3.08 kcal/mol
CCCCCC(N)=O,"solvation free energy, 298 K",in O,-9.31 kcal/mol
O=C(O)CCCC(=O)O,"solvation free energy, 298 K",in O,-12.7 kcal/mol
same,"solvation free energy, 298 K",in O=C1CCCCC1,-12.1 kcal/mol
COP(=S)(OC)SCn1nnc2ccccc2c1=O,"solvation free energy, 298 K",in O,-10 kcal/mol
CSSC,"solvation free energy, 298 K",in O,-1.74 kcal/mol
Cc1ccc(CO)cc1,"solvation free energy, 298 K",in O,-7.12 kcal/mol
CCCC(C)CO (stereo unspecified),"solvation free energy, 298 K",in CCCCCCCC,-4.89 kcal/mol
same,"solvation free energy, 298 K",in CCCCCCCCCC,-4.82 kcal/mol
O=C1OC(C(O)CO)C(O)=C1O (stereo unspecified),"solvation free energy, 298 K",in CCCO,-17.2 kcal/mol
same,"solvation free energy, 298 K",in CCO,-17.7 kcal/mol
C1=CCCC=C1,"solvation free energy, 298 K",in C1CCC2CCCCC2C1,-4.14 kcal/mol
same,"solvation free energy, 298 K",in C1CCC(C2CCCCC2)CC1,-4.06 kcal/mol
same,"solvation free energy, 298 K",in CN1CCCC1=O,-3.77 kcal/mol
same,"solvation free energy, 298 K",in O,-0.26 kcal/mol
same,"solvation free energy, 298 K",in c1ccc2c(c1)CCCC2,-4.31 kcal/mol
same,"solvation free energy, 298 K",in c1ccc(C2CCCCC2)cc1,-4.19 kcal/mol
CC(C)C1CCC2(C)C3CC4C(C13)C42C (stereo unspecified),"solvation free energy, 298 K",in O,1.13 kcal/mol
Cc1ccc(N(O)C(=O)c2ccccc2C)cc1,"solvation free energy, 298 K",in O,-11.5 kcal/mol
CCC#N,"solvation free energy, 298 K",in C=CCCCCCCCCCCCCCC,-2.85 kcal/mol
same,"solvation free energy, 298 K",in CC(=O)N(C)C,-4.99 kcal/mol
same,"solvation free energy, 298 K",in CC(C)CC(C)(C)C,-2.83 kcal/mol
same,"solvation free energy, 298 K",in CCCCCC,-3.04 kcal/mol
same,"solvation free energy, 298 K",in CCCCCCC,-2.86 kcal/mol
same,"solvation free energy, 298 K",in CCCCCCCC,-2.84 kcal/mol
same,"solvation free energy, 298 K",in CCCCCCCCCCCCCCCC,-2.64 kcal/mol
same,"solvation free energy, 298 K",in CCCCCCCCO,-3.65 kcal/mol
same,"solvation free energy, 298 K",in CCCCO,-4.01 kcal/mol
same,"solvation free energy, 298 K",in CCOC(C)=O,-4.68 kcal/mol
same,"solvation free energy, 298 K",in CN(C)C=O,-5.01 kcal/mol
same,"solvation free energy, 298 K",in CO,-4.92 kcal/mol
same,"solvation free energy, 298 K",in ClC(Cl)(Cl)Cl,-3.78 kcal/mol
same,"solvation free energy, 298 K",in ClCCCl,-4.98 kcal/mol
same,"solvation free energy, 298 K",in Clc1ccccc1,-4.45 kcal/mol
same,"solvation free energy, 298 K",in N#Cc1ccccc1,-4.82 kcal/mol
same,"solvation free energy, 298 K",in O,-3.84 kcal/mol
same,"solvation free energy, 298 K",in [2H]O[2H],-3.79 kcal/mol
CCCCCC(=O)OCC,"solvation free energy, 298 K",in O,-2.24 kcal/mol
CCCCCCCCCCOC(=O)c1ccccc1C(=O)OCCCCCCCCCC,"solvation free energy, 298 K",in O,-6.22 kcal/mol
